Experimental findings from publication PMC10951066, “The self-reactive FVIII T cell repertoire in healthy individuals relies on a short set of epitopes and public clonotypes” (Frontiers in Immunology, 2024) are described below.

Test in all cases: Peptide-MHCII competition binding assay
The target of one experiment is HLA-DRB1*0401 (Homo sapiens, UniProt P01903+P01911, A100K/A169T/F76Y/I96L/K127E/L162R/M171V/N62H/P40V/Q125Y/R42H/S133A/S149N/S66Y/V115G/V209L/W38E). To be noted: competition ELISA, pH 5.9, peptide 90.000nM – 0.9nM, HLA-DRB1 30 nM, biotinylated peptide 15nM, duplicate wells; ratios below 10 = good binding; reference peptide […]. The method, then: (§1) Quantitative peptide-MHCII competition binding assays were carried out to determine binding avidities of the 18 20-mer FVIII peptides to 6 HLA-DRB1. Data are presented as ratio between reference peptide IC50/FVIII-peptide IC50 tested. Briefly, non-biotinylated FVIII peptides have been diluted at a concentration of 20 mM in DMSO. 10-µl aliquots of serially diluted (90.000nM – 0.9nM in n-Octyl b-D-Glucopyranoside, 2.5 mg/ml in 1x phosphate buffer, pH 5.9) of non-biotinylated FVIII peptides, were added to duplicate wells of 96-well polypropylene plates. Serially diluted non-FVIII reference peptides known to bind to the specific HLA-DRB1 were added to separate wells as positive controls. Next, the biotinylated peptide at a concentration of 2mM was use to prepare 1000-fold pre-dilution to reach a final concentration of 15nM. The HLA-DRB1 proteins were diluted to 30 nM in n-Octyl β-D-Glucopyranoside, 2.5 mg/ml in 1x phosphate buffer, pH 5.9. […] SA-HRP (diluted 5000x in 1xPBS 0.1% Tween20) was added to each well. The plates were covered and incubated at room temperature for 60 min […] and washed. TMB (100 μl/well) was then added, and the plates were incubated at room temperature for 15-30 min. ELISA stopping solution (0.5M H2SO4) was added and then read on a FLUOstar OPTIMA fluorometer. Sigmoidal binding curves were simulated and IC50 values calculated for the FVIII peptides, based on their competition with the reference peptides for each HLA-DRB1. Data were reported as the ratio between the values of the tested peptide and of the reference peptide. Ratios below 10 correspond to good biding affinity.
A general note: An ELISA detects its analyte on a solid surface through an enzyme-linked reagent.

The target of a further experiment is HLA-DRB1*0701 (Homo sapiens, UniProt P01903+P01911, A100R/A102G/A103Q/D57E/D86V/E43K/F76Y/K127E/L162R/M171V/P40G/Q125H/Q99D/R33Q/R42Y/R54Q/S133A/S66F/T210M/V115G/Y107V/Y59L/Y89S). The note with it: competition ELISA, pH 5.9, peptide 90.000nM – 0.9nM, HLA-DRB1 30 nM, biotinylated peptide 15nM, duplicate wells; ratios below 10 = good binding; reference peptide PVDLHAFLSQAVFS
The method, then: as §1

A further experiment concerns the target HLA-DRB1*1101 (Homo sapiens, UniProt P01903+P01911, A100R/A169T/A87E/I96F/K41T/L162R/M171V/P40S/Q125H/Q178H/Q39Y/Q99D/R42S/S66Y/T262R/V115G/W38E). The note with it: competition ELISA, pH 5.9, peptide 90.000nM – 0.9nM, HLA-DRB1 30 nM, biotinylated peptide 15nM, duplicate wells; ratios below 10 = good binding; reference peptide […]. How it is done:
as §1

The next experiment has as its target HLA-DRB1*0101 (Homo sapiens, UniProt P01903+P01911, A100R/D57E/F55L/F60I/F76Y/I96L/L162R/M171V/P40L/Q125E/R42F/V115G/Y59C). The note with it: competition ELISA, pH 5.9, peptide 90.000nM – 0.9nM, HLA-DRB1 30 nM, biotinylated peptide 15nM, duplicate wells; ratios below 10 = good binding; reference peptide […]. How it is done: as §1
The next experiment has as its target HLA-DRB1*1501 (Homo sapiens, UniProt P01903+P01911). The note with it: competition ELISA, pH 5.9, peptide 90.000nM – 0.9nM, HLA-DRB1 30 nM, biotinylated peptide 15nM, duplicate wells; ratios below 10 = good binding; reference peptide ENPVVHFFKNIVTPR
How it is done: as §1

For the sequence “ATRRYYLGAVELSWDYMQSD [P20-39, 20-mer FVIII peptide, A1 domain]”, the “Ratio IC50 DRB1*0401” value on HLA-DRB1*0401 is 1.7. In addition, the “Ratio IC50 DRB1*0701” value on HLA-DRB1*0701 was found to be 0.5. In addition, the “Ratio IC50 DRB1*1101” value at HLA-DRB1*1101 was 0.8.
As for “DHLFNIAKPRPPWMGLLGPT [P75-94, 20-mer FVIII peptide, A1 domain]”, the “Ratio IC50 DRB1*0101” value on HLA-DRB1*0101 is listed as 747. Besides, the “Ratio IC50 DRB1*0401” value on HLA-DRB1*0401 stood at 27. The “Ratio IC50 DRB1*0701” value at HLA-DRB1*0701 came to 1. Moreover, the “Ratio IC50 DRB1*1101” value on HLA-DRB1*1101 stood at 1.8. The “Ratio IC50 DRB1*1501” value at HLA-DRB1*1501 is given as 0.0.
On to “HPQSWVHQIALRMEVLGCEA [P2328-2347, 20-mer FVIII peptide, C2 domain]”, for which, on HLA-DRB1*0101, the “Ratio IC50 DRB1*0101” value is 1.6. On HLA-DRB1*0401, the “Ratio IC50 DRB1*0401” value is recorded as 1240. Besides, the “Ratio IC50 DRB1*0701” value on HLA-DRB1*0701 is 1. Also, the “Ratio IC50 DRB1*1101” value at HLA-DRB1*1101 came to 2.
For “INGYIMDTLPGLVMAQDQRI [P1940-1959, 20-mer FVIII peptide, A3 domain]” the same measures were 6, 0.1, 1.1 and 0.5.
Take “KARLHLQGRSNAWRPQVNNP [P2226-2245, 20-mer FVIII peptide, C2 domain]”: at HLA-DRB1*0101, the “Ratio IC50 DRB1*0101” value came to 0.2. Further, on HLA-DRB1*0401, the “Ratio IC50 DRB1*0401” value is recorded as 3. Also, the “Ratio IC50 DRB1*0701” value on HLA-DRB1*0701 is on record as 0.05. Moreover, at HLA-DRB1*1101, the “Ratio IC50 DRB1*1101” value is reported as 1.9. Also, the “Ratio IC50 DRB1*1501” value at HLA-DRB1*1501 was found to be 0.6.
For “KEPFSWIKVDLLAPMIIHGI [P2084-2103, 20-mer FVIII peptide, C1 domain]”, the “Ratio IC50 DRB1*0401” value at HLA-DRB1*0401 came to 1.9.
With “KKEEYKMALYNLYPGVFETV [P1986-2005, 20-mer FVIII peptide, A3 domain]”, the “Ratio IC50 DRB1*0101” value on HLA-DRB1*0101 was 182. The “Ratio IC50 DRB1*0401” value on HLA-DRB1*0401 was determined as 622.5. Further, the “Ratio IC50 DRB1*0701” value on HLA-DRB1*0701 is recorded as 0.2. Besides, the “Ratio IC50 DRB1*1501” value at HLA-DRB1*1501 came to 0.4.
Regarding “KLARLHYSGSINAWSTKEPF [P2068-2087, 20-mer FVIII peptide, C1 domain]”, the “Ratio IC50 DRB1*0101” value at HLA-DRB1*0101 is 70.5. In addition, at HLA-DRB1*0401, the “Ratio IC50 DRB1*0401” value was 0.2. Also, the “Ratio IC50 DRB1*0701” value at HLA-DRB1*0701 worked out at 0.35. Besides, the “Ratio IC50 DRB1*1101” value on HLA-DRB1*1101 was found to be 4.6. In addition, the “Ratio IC50 DRB1*1501” value at HLA-DRB1*1501 stood at 20.
Take “LGQFLLFCHISSHQHDGMEA [P322-341, 20-mer FVIII peptide, A1 domain]”: the “Ratio IC50 DRB1*0701” value on HLA-DRB1*0701 was found to be 0.6. For the same sequence, the “Ratio IC50 DRB1*1101” value on HLA-DRB1*1101 stood at 0.05. On HLA-DRB1*1501, the “Ratio IC50 DRB1*1501” value was 0.05.
For “LLTRYLRIHPQSWVHQIALR [P2320-2339, 20-mer FVIII peptide, C2 domain]”, the “Ratio IC50 DRB1*0101” value on HLA-DRB1*0101 is reported as 1. Besides, at HLA-DRB1*0401, the “Ratio IC50 DRB1*0401” value is reported as 76. Moreover, the “Ratio IC50 DRB1*0701” value on HLA-DRB1*0701 stood at 0.05. At HLA-DRB1*1101, the “Ratio IC50 DRB1*1101” value turned out to be 1. In addition, at HLA-DRB1*1501, the “Ratio IC50 DRB1*1501” value is reported as 0.0.
Regarding “LSHVDLVKDLNSGLIGALLV [P178-197, 20-mer FVIII peptide, A1 domain]”, the “Ratio IC50 DRB1*0101” value on HLA-DRB1*0101 is on record as 1.7. For the same sequence, the “Ratio IC50 DRB1*0401” value on HLA-DRB1*0401 is recorded as 0.05. The “Ratio IC50 DRB1*0701” value on HLA-DRB1*0701 came to 0.4. In addition, at HLA-DRB1*1101, the “Ratio IC50 DRB1*1101” value worked out at 0.1. For the same sequence, the “Ratio IC50 DRB1*1501” value at HLA-DRB1*1501 came out at 95.
Take PPIIARYIRLHPTHYSIRST [P2161-2180]: on HLA-DRB1*0101, the “Ratio IC50 DRB1*0101” value is reported as 1. Besides, the “Ratio IC50 DRB1*0401” value on HLA-DRB1*0401 came out at 5.6. Also, on HLA-DRB1*0701, the “Ratio IC50 DRB1*0701” value was found to be 0.05. For the same sequence, the “Ratio IC50 DRB1*1101” value at HLA-DRB1*1101 was 0.4. The “Ratio IC50 DRB1*1501” value on HLA-DRB1*1501 is 0.05.
In the case of “RHYFIAAVERLWDYGMSSSP [P1715-1734, 20-mer FVIII peptide, A3 domain]”, the “Ratio IC50 DRB1*0101” value at HLA-DRB1*0101 turned out to be 20.4. Moreover, the “Ratio IC50 DRB1*0401” value on HLA-DRB1*0401 is on record as 138. At HLA-DRB1*0701, the “Ratio IC50 DRB1*0701” value was found to be 1. For the same sequence, on HLA-DRB1*1501, the “Ratio IC50 DRB1*1501” value is 77.
As for “SLYISQFIIMYSLDGKKWQT [P2114-2133, 20-mer FVIII peptide, C1 domain]”, the “Ratio IC50 DRB1*0101” value on HLA-DRB1*0101 is on record as 0.2. Besides, at HLA-DRB1*0401, the “Ratio IC50 DRB1*0401” value is on record as 0.6. The “Ratio IC50 DRB1*0701” value at HLA-DRB1*0701 was found to be 0.1. Also, the “Ratio IC50 DRB1*1101” value on HLA-DRB1*1101 is reported as 0.4. The “Ratio IC50 DRB1*1501” value on HLA-DRB1*1501 was determined as 4.
For “VHSIFLEGHTFLVRNHRQAS [P285-304, 20-mer FVIII peptide, A1 domain]”, in that order: 163, 57.6, 2, 0.0 and 11.
In the case of “YDTVVITLKNMASHPVSLHA [P100-119, 20-mer FVIII peptide, A1 domain]”, the “Ratio IC50 DRB1*0101” value on HLA-DRB1*0101 turned out to be 226. Besides, the “Ratio IC50 DRB1*0401” value at HLA-DRB1*0401 is 17. For the same sequence, the “Ratio IC50 DRB1*0701” value on HLA-DRB1*0701 is given as 3. Further, the “Ratio IC50 DRB1*1101” value on HLA-DRB1*1101 stood at 2. Moreover, at HLA-DRB1*1501, the “Ratio IC50 DRB1*1501” value is reported as 0.5.
